Assay: In vitro biotransformation rate, rainbow trout liver S9 (OECD TG 319)
Type: in vitro ADME
Experimental: In brief, rainbow trout liver S9 homogenate was preincubated in buffer and cofactors, followed by 120 min of incubation with bisphenol. From each duplicate, 50 μL of subsamples was taken at timepoints 0, 2, 5, 15, 30, 60, 90, and 120 min and mixed with 200 μL of ice-cold methanol. The protocol of the procedure is described further in Section 2.
1042. Biotransformation rate estimation methodology
106Trinova Biochem; Lot: 180216) was pre-incubated at 11°C in K 2HPO4/KH2PO4 buffer
107(pH=7.8; 1 mL final volume) containing alamethicin from Trichoderma viride (25 μg/mL), and
108cofactors NADPH (2 mM), UDPGA (2 mM), GSH (5 mM), and PAPS (0.1 mM). After 10 min
109of preincubation, biotransformation was started by adding 5 µL of bisphenol test compound
110dissolved in methanol (1 µM final concentration). […]

## Oc1ccc(C2(c3ccc(O)cc3)CCCCC2)cc1 [BPZ, bisphenol Z]
Both series combined
  CL: 0.30 mL/(h x mg)
From measured S9 clearance, transformed as suggested by Nichols et al.
  CLin vivo,int (in vivo intrinsic clearance): 17.4 L/d/Kg fish
In vitro incubation with rainbow trout liver S9, assuming 163 mg S9 protein/g liver
  CL (clearance rate): 1.16 × 10^3 mL/d/g liver
Series 1 (s1)
  CL: 0.33 mL/(h x mg)
  k (first-order disappearance rate constant): 0.32 h⁻¹
Series 2 (s2)
  CL: 0.26 mL/(h x mg)
  k (first-order disappearance rate constant): 0.26 h⁻¹
